Experimental data taken from patent publication US20240366728A1, “Treatment of Diabetes Mellitus” (Carmot Therapeutics Inc., priority 2023, published 2024).
Ends that are not written are not given here.

Columns and labels:
[1] = pharmacokinetics in CD-1 mice, single SC injection; conditions: 1 mg/kg SC
Experimental: Blood was kept on ice until centrifuged at 4600 rpm for five minutes at 4° C. Plasma was stored at −80° C. until analysis. Compounds were extracted from plasma and quantified against a standard curve using an AB Sciex 7500+LC-MS/MS system (FIG. 5).

[2] = test system: participants with obesity and participants with T2DM; assay: CT-868-003 crossover study: safety; assay type: in vivo, human; conditions: in vivo
Source text: Safety assessments of this study included treatment-emergent adverse events (TEAEs), serious adverse events (SAEs), adverse events of special interest (AESI), vital signs, 12-lead electrocardiogram (ECG), clinical lab evaluations, and physical exam.
Safety assessments which occurred throughout the entire study, included monitoring of incidence and severity of AEs, treatment-emergent AEs (TEAEs) and AEs of special interest (AESIs) (e.g., GI events, hypoglycemia), clinical laboratory abnormalities (ECGs, chemistry, hematology, and urinalysis), and changes in vital sign measurements (BP, heart rate, respiratory rate, and aural temperature).
AE terms recorded by the Investigator were coded to system organ class (SOC) and preferred term (PT) using the Medical Dictionary for Regulatory Activities (MedDRA) version 24.0. Severity was collected using the Common Terminology Criteria for AEs (CTCAE) version 5.0 Toxicity Grade. Events with missing severity were summarized as Grade 3. TEAEs summarized by severity counted each participant once for the maximum severity within each SOC and PT within each in-house treatment period and overall. TEAEs marked with a relationship to study treatment as definitely, probable, possible, or missing were considered as related TEAEs. Events with missing relationship to study treatment were summarized as related. The number and percentage of participants with TEAEs were summarized by MedDRA-coded SOCs and PTs.

[3] = test system: lean C57BL/6J, GLP-1R+/+ and GLP-1R-/- mice; assay: single intracerebroventricular injection: food consumption and body weight; conditions: lean mice, single ICV 0.025 nmol, up to 72 h
[4] = target: human GLP-1R (Homo sapiens, UniProt P43220); assay: receptor internalization (Nano-Glo HiBiT), human GLP-1R; assay type: cell-based; parameters: host or cells: HEK293
Sequence of human GLP-1R (P43220 24-463): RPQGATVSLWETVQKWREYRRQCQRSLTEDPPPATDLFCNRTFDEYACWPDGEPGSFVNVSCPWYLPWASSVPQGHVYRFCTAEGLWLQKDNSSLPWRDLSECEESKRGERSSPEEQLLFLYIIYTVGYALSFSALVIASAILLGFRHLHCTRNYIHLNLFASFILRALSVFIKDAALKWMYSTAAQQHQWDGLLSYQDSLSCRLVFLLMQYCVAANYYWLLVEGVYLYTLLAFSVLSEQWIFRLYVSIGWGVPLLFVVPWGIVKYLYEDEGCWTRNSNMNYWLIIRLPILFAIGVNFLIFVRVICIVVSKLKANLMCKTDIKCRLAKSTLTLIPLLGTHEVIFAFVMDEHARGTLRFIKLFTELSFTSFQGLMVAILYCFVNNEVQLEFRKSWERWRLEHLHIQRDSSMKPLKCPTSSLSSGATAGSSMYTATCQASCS
Experimental: GLP-1R and GIPR internalization were measured using Promega's Nano-Glo® HiBit extracellular detection system (Promega Corporation; Madison, WI). Hek293 cells were transiently transfected with HiBiT-tagged hGLP-1R or hGIPR plasmids (Promega Corporation; Madison, WI). Cells were lifted using the TrypLE express enzyme (ThermoFisher Scientific) and plated at 80,000-100,000 cells per well in 96 well plates. Cells were then treated with Nano-Glo HibiT extracellular buffer containing LgBiT protein (1:100), and the Nano-Glo HiBiT extracellular substrate (1:50).
GLP-1R and GIPR internalization was measured using Promega's Nano-Glo® HiBit extracellular detection system (Promega Corporation; Madison, WI). HEK293 cells were transiently transfected with low quantities of HiBiT-tagged hGLP-1R or hGIPR plasmids (Promega Corporation; Madison, WI). The next day, cells were lifted using TrypLE express enzyme (ThermoFisher Scientific) and plated at 80,000-100,000 cells per well in 96 well plates.

[5] = test system: C57BL/6J-DIO mice; assay: intraperitoneal glucose tolerance test in DIO mice; assay type: in vivo, mouse; conditions: for efficacy in ipGTT eight hours post-drug administration (in words): C57BL/6J-DIO mice, single dose 2.4 nmol/kg

For `CCCCCCCCCCCCCCCC(=O)N[C@@H](CCC(=O)NCCCC[C@H](NC(=O)[C@H](C)NC(=O)[C@H](C)NC(=O)[C@H](CCC(N)=O)NC(=O)CNC(=O)[C@H](CCC(=O)O)NC(=O)[C@H](CC(C)C)NC(=O)[C@H](Cc1ccc(O)cc1)NC(=O)[C@H](CO)NC(=O)[C@H](CO)NC(=O)[C@@H](NC(=O)[C@H](CC(=O)O)NC(=O)[C@H](CO)NC(=O)[C@@H](NC(=O)[C@H](Cc1ccccc1)NC(=O)[C@@H](NC(=O)CNC(=O)[C@H](CCC(=O)O)NC(=O)[C@H](C)NC(=O)[C@@H](N)Cc1cnc[nH]1)[C@@H](C)O)[C@@H](C)O)C(C)C)C(=O)N[C@@H](CCC(=O)O)C(=O)N[C@@H](Cc1ccccc1)C(=O)N[C@H](C(=O)N[C@@H](C)C(=O)N[C@@H](Cc1c[nH]c2ccccc12)C(=O)N[C@@H](CC(C)C)C(=O)N[C@H](C(=O)N[C@@H](CCCNC(=N)N)C(=O)NCC(=O)N[C@@H](CCCNC(=N)N)C(=O)NCC(=O)O)C(C)C)[C@@H](C)CC)C(=O)O` [liraglutide, Liraglutide, reference compound], the “times more exposure than CT-859” value [1] was 6 times, the “AEs of Special Interest (AESI) Total” value [2] was 4 (40.0) n (%) and the Abdominal pain [2] was 0 n (%). For the same compound, the Anaemia [2] was 0 n (%), the “Any AESIs, Grade 2” value [2] was 1 (25.0%) n (%) and the Arthralgia [2] was 0 n (%). For the same compound, the “At Least 1 Study Drug Related TEAE” value [2] was 3 (30.0) n (%), the “At Least 1 TEAE” value [2] was 7 (70.0) n (%) and the Back pain [2] was 0 n (%). The “Blood and lymphatic system disorders” value [2] was 0 n (%), the Chills [2] was 0 n (%) and the Coagulation test abnormal [2] was 0 n (%). The Constipation [2] was 0 n (%), the Decreased appetite [2] was 0 n (%) and the Diarrhoea [2] was 0 n (%). For the same compound, the Dizziness [2] was 0 n (%), the Eructation [2] was 0 n (%) and the Gastroesophageal reflux disease [2] was 0 n (%). The “General disorders and administration site conditions” value [2] was 0 n (%), the Headache [2] was 0 n (%) and the Hypoglycemia [2] was 3 (30.0) n (%). The Infections and infestations [2] was 0 n (%), the “Injection Site Reaction” value [2] was 0 n (%) and the Injection site haemorrhage [2] was 0 n (%). For the same compound, the Injection site reactions [2] was 0 n (%), the Investigations [2] was 0 n (%) and the “Musculoskeletal and connective tissue disorders” value [2] was 0 n (%). For the same compound, the Nervous system disorders [2] was 0 n (%), the Peripheral swelling [2] was 0 n (%) and the Rash [2] was 0 n (%). The SAEs [2] was 0 n (%), the Skin hyperpigmentation [2] was 0 n (%) and the “TEAEs leading to drug discontinuation” value [2] was 0 n (%). The “Treatment Discontinuation” value [2] was 0 n (%), the Urinary tract infection [2] was 0 n (%) and the Vomiting [2] was 0 n (%). For the same compound, the “participants with Grade 1 hypoglycemia events” value [2] was 3 participants.
In the case of “FG-EGT-FTS-DLS-KQM-EEE-AVR-LFI-EWL-LAG-GPS-SGA-PPPS-NH2 (FGEGTFTSDLSKQMEEEAVRLFIEWLLAGGPSSGAPPPS-NH2) [Ex-Phe1, reference compound]”, the “food consumption and body weight after ICV injection (in words)” value (“food consumption and body weight” for short) [3] was “remained efficacious”, the “food consumption and body weight” value ([3]; listed as exendin-Phe1) was “greater reduction of food intake and much more prolonged body weight reduction as compared to exendin-4” and the “signalling profile at GLP-1R (in words)” value [4] was “cAMP-biased agonist that prevents receptor internalization”. The “glucose tolerance and body weight vs exendin-4 (in words)” value [5] was “improves glucose tolerance and decreases body weight more than exendin-4” and the “efficacy in ipGTT eight hours post-drug administration (in words)” value [5] was “remained efficacious”.
For Exendin-4 [Ex-4, reference compound], the “food consumption and body weight” value [3] was “started to lose efficacy by 48 hours”, the “food consumption and body weight” value ([3]; listed as exendin-4) was “significant reduction of cumulative food consumption” and the “efficacy in ipGTT eight hours post-drug administration (in words)” value [5] was “no longer effective”.
